Source: patent publication US11986452B2, “Methods of reducing the risk of heart failure” (Amarin Pharmaceuticals Ireland Limited, priority 2021, dated 2024)

What was measured:
[1] = test system: TG, non-HDL-C, LDL-C, HDL-C, Apo B, hsCRP; assay: REDUCE-IT fasting lipid profile and biomarker assays over time; format: in vivo, human; settings: for Apo B between group difference vs placebo, median % change from baseline / Apo B between group difference vs placebo, median absolute change from baseline / HDL-C between group difference vs placebo, median % change from baseline / HDL-C between group difference vs placebo, median absolute change from baseline / LDL-C Hopkins between group difference vs placebo, median % change from baseline / LDL-C Hopkins between group difference vs placebo, median absolute change from baseline / LDL-C derived between group difference vs placebo, median % change from baseline / LDL-C derived between group difference vs placebo, median absolute change from baseline / Log hsCRP between group difference vs placebo, median absolute change from baseline / Non-HDL-C between group difference vs placebo, median % change from baseline / Non-HDL-C between group difference vs placebo, median absolute change from baseline / Triglycerides between group difference vs placebo, median absolute change from baseline / hsCRP between group difference vs placebo, median absolute change from baseline: ITT
Protocol: Fasting Lipid Profile: The fasting lipid panel included: TG, TC, LDL-C, HDL-C, non-HDL-C, and VLDL-C. At all visits, LDL-C was calculated using the Friedewald equation. At Visit 1 and Visit 1.1 direct LDL-C were used if at the same visit TG>400 mg/dL (4.52 mmol/L). These LDL-C values were used for the evaluation of the LDL-C inclusion criterion (LDL-C qualifying measurements for randomization) and for the assessment of changes in the statin therapy when LDL-C was not at goal. […] In addition, irrespective of the TG levels, at Visit 2 (0 Months of Follow-up, baseline) and at Visit 4 (12 Months of Follow-up), LDL-C were measured by preparative ultracentrifugation. These preparative ultracentrifugation LDL-C measurements were used in the statistical analysis including the calculation of the percent change from baseline (1 year versus baseline). Hopkins LDL-C was calculated for each visit.
Biomarkers Assays: The biomarker assays included: hsCRP, Apo B and hsTnT.
The fasting lipid panel was tested at Screening (Visit 1 or Visit 1.1), Randomization visit (Visit 2; Day 0), Visit 3 (Day 120; ˜4 Months) and all other follow-up visits including the last visit. For change from baseline to 1 year preparative ultracentrifugation measurements for LDL-C were analyzed, unless this value was missing. If the LDL-C preparative ultracentrifugation values were missing, then another LDL-C value was used, with prioritization of values obtained from LDL-C Direct measurements, followed by LDL-C derived by the Friedewald calculation (only for subjects with TG<400 mg/dL), and finally LDL-C derived using the calculation published by Hopkins University investigators (Martin S S, Blaha M J, Elshazly M B, et al. Comparison of a novel method vs the Friedewald equation for estimating low-density lipoprotein cholesterol levels from the standard lipid profile. JAMA. 2013; 310:2061-8.). In addition, change from baseline to day 120 in LDL-C utilizing Friedewald's and Hopkins methods was analyzed, using the arithmetic mean of LDL-C obtained at Visit 2 (Day 0) and the preceding Visit 1 (or Visit 1.1). If one of these values was missing, the single available LDL-C value was used. LDL-C according to Hopkins was calculated at each visit.
The randomization visit was considered Baseline. If a baseline value was not available from the randomization visit, then the latest screening value was used. For measurements of lipids, lipoproteins and inflammatory markers, the change and the percent change were summarized at each visit. Since these biomarkers are typically not normally distributed, the Wilcoxon rank-sum test was used for treatment comparisons of the percent change from baseline, and medians and quartiles were provided for each treatment group. The medians of the differences between the treatment groups and 95% CIs were estimated with the Hodges-Lehmann method. In addition, shift-tables were generated as appropriate.

[2] = REDUCE-IT safety: treatment-emergent adverse events, safety population
Protocol: All adverse events, including observed or volunteered problems, complaints, or symptoms, were recorded on the appropriate CRF. Each adverse event was evaluated for duration, intensity, and causal relationship with the study medication or other factors.
Adverse Events of Special Interest: Bleeding-related adverse events, glucose control (fasting blood glucose and HbA1c), and indicators of hepatic disorders (e.g., ALT or AST increases >3×ULN, total bilirubin increases of ≥2×ULN) were summarized separately and compared between treatment groups.
Analysis of Safety: All analyses of safety were conducted on the safety population, which was defined as all randomized patients. The safety assessment was based on the frequency of adverse events, physical exams, vital signs and safety laboratory tests. AEs with new onset during the study between the initiation of study drug and 30 days after the last dose of study drug for each patient was considered treatment-emergent (TEAEs). This included any AE with onset prior to initiation of study drug and increased severity after the treatment initiation.
This included overall incidence rates (regardless of severity and relationship to study drug), and incidence rates for moderate or severe adverse events. A summary of SAEs and adverse events leading to early discontinuation (for ≥30 days) were presented through data listings. Patients who restarted study drug were included in the summary of AEs leading to discontinuation. Safety laboratory tests and vital signs were summarized by post-treatment change from baseline for each of the parameters using descriptive statistics by treatment group. Those patients with significant laboratory abnormalities were identified in data listings. Additional safety parameters were summarized in data listings.

[3] = safety population N = 4089, listed as AMR101
[4] = serious bleeding TEAE, safety population N = 4089

Structure (SMILES): CC/C=C\C/C=C\C/C=C\C/C=C\C/C=C\CCCC(=O)OCC [icosapent ethyl, eicosapentaenoic acid ethyl ester]
- Apo B between group difference vs placebo, median % change from baseline ([1]; Last Visit): −6.7%
- Apo B between group difference vs placebo, median absolute change from baseline ([1]; Last Visit): -5.0 mg/dL
- HDL-C between group difference vs placebo, median % change from baseline ([1]; Last Visit): −3.0%
- HDL-C between group difference vs placebo, median absolute change from baseline ([1]; Last Visit): -1.0 mg/dL
- LDL-C Hopkins between group difference vs placebo, median % change from baseline ([1]; Last Visit): −7.4%
- LDL-C Hopkins between group difference vs placebo, median absolute change from baseline ([1]; Last Visit): -6.2 mg/dL
- LDL-C derived between group difference vs placebo, median % change from baseline ([1]; Last Visit): −6.6%
- LDL-C derived between group difference vs placebo, median absolute change from baseline ([1]; Last Visit): -5.0 mg/dL
- Log hsCRP between group difference vs placebo, median absolute change from baseline ([1]; Last Visit): −0.4 mg/L
- Non-HDL-C between group difference vs placebo, median % change from baseline ([1]; Last Visit): −8.6%
- Non-HDL-C between group difference vs placebo, median absolute change from baseline ([1]; Last Visit): -10.0 mg/dL
- Triglycerides between group difference vs placebo, median absolute change from baseline ([1]; Last Visit): -32.0 mg/dL
- hsCRP between group difference vs placebo, median absolute change from baseline ([1]; Last Visit): -0.8 mg/L
- HDL-C between group difference vs placebo, median % change from baseline ([1]; Month 4): −7.2%
- HDL-C between group difference vs placebo, median absolute change from baseline ([1]; Month 4): -3.0 mg/dL
- LDL-C Hopkins between group difference vs placebo, median absolute change from baseline ([1]; Month 4): -8.7 mg/dL
- Apo B median value ([1]; Year 1 (Table 18)): 80.0 mg/dL
- hsCRP median value ([1]; Year 1 (Table 18)): 1.8 mg/L
- HDL-C between group difference vs placebo, median % change from baseline ([1]; Year 1): −6.3%
- HDL-C between group difference vs placebo, median absolute change from baseline ([1]; Year 1): -2.5 mg/dL
- LDL-C Hopkins between group difference vs placebo, median absolute change from baseline ([1]; Year 1): -9.6 mg/dL
- LDL-C derived between group difference vs placebo, median % change from baseline ([1]; Year 1): −6.6%
- LDL-C derived between group difference vs placebo, median absolute change from baseline ([1]; Year 1): -5.0 mg/dL
- Apo B between group difference vs placebo, median % change from baseline ([1]; Year 2): −9.7%
- Apo B between group difference vs placebo, median absolute change from baseline ([1]; Year 2): -8.0 mg/dL
- HDL-C between group difference vs placebo, median % change from baseline ([1]; Year 2): −4.6%
- HDL-C between group difference vs placebo, median absolute change from baseline ([1]; Year 2): -2.0 mg/dL
- LDL-C Hopkins between group difference vs placebo, median absolute change from baseline ([1]; Year 2): -9.4 mg/dL
- Log hsCRP between group difference vs placebo, median absolute change from baseline ([1]; Year 2): −0.4 mg/L
- hsCRP between group difference vs placebo, median absolute change from baseline ([1]; Year 2): -0.9 mg/L
- HDL-C between group difference vs placebo, median % change from baseline ([1]; Year 3): −3.8%
- HDL-C between group difference vs placebo, median absolute change from baseline ([1]; Year 3): -1.5 mg/dL
- LDL-C Hopkins between group difference vs placebo, median absolute change from baseline ([1]; Year 3): -8.7 mg/dL
- HDL-C between group difference vs placebo, median % change from baseline ([1]; Year 4): −3.9%
- HDL-C between group difference vs placebo, median absolute change from baseline ([1]; Year 4): -1.5 mg/dL
- LDL-C Hopkins between group difference vs placebo, median absolute change from baseline ([1]; Year 4): -8.9 mg/dL
- Non-HDL-C between group difference vs placebo, median % change from baseline ([1]; Year 4): −12.0%
- Non-HDL-C between group difference vs placebo, median absolute change from baseline ([1]; Year 4): -14.0 mg/dL
- Triglycerides between group difference vs placebo, median absolute change from baseline ([1]; Year 4): -38.0 mg/dL
- HDL-C between group difference vs placebo, median % change from baseline ([1]; Year 5): −3.0%
- HDL-C between group difference vs placebo, median absolute change from baseline ([1]; Year 5): -1.5 mg/dL
- LDL-C Hopkins between group difference vs placebo, median % change from baseline ([1]; Year 5): −8.0%
- LDL-C Hopkins between group difference vs placebo, median absolute change from baseline ([1]; Year 5): -6.6 mg/dL
- Non-HDL-C between group difference vs placebo, median % change from baseline ([1]; Year 5): −9.9%
- Non-HDL-C between group difference vs placebo, median absolute change from baseline ([1]; Year 5): -11.0 mg/dL
- Triglycerides: median reduction from baseline greater than in placebo group (Hodges-Lehmann) ([1]; baseline to one year): 19.7%
- Adverse event rate: anemia ([2]; 4 g/day): 4.7%
- Adverse event rate: atrial fibrillation ([2]; 4 g/day): 5.3%
- Adverse event rate: diarrhea ([2]; 4 g/day): 9%
- Adverse event rate: gastrointestinal adverse events ([2]; 4 g/day): 33.0%
- Adverse event rate: peripheral edema ([2]; 4 g/day): 6.5%
- Atrial fibrillation or flutter requiring hospitalization (prespecified adjudicated tertiary endpoint) ([2]; 4 g/day): 3.1%
- Tolerability; rates of serious adverse events versus placebo ([2]; in vivo): well tolerated
- Serious TEAE ([2]; safety population N = 4089): (30.6%)
- Serious TEAE (≥2%): Pneumonia ([2]; safety population N = 4089): 2.6%
- Serious TEAE Leading to Death ([2]; safety population N = 4089): (2.3%)
- Serious TEAE Leading to Withdrawal of Study Drug ([2]; safety population N = 4089): (2.2%)
- Serious bleeding TEAE: Bleeding related disorders ([2]; safety population N = 4089): (2.7%)
- Serious bleeding TEAE: Central nervous system bleeding ([2]; safety population N = 4089): (0.3%)
- Serious bleeding TEAE: Gastrointestinal bleeding ([2]; safety population N = 4089): (1.5%)
- Serious bleeding TEAE: Other bleeding ([2]; safety population N = 4089): (1.0%)
- Subjects with at Least One TEAE ([2]; safety population N = 4089): (81.8%)
- TEAE Leading to Withdrawal of Study Drug ([2]; safety population N = 4089): (7.9%)
- Serious bleeding TEAE: Bleeding related disorders [2, 3]: 2.7%
- Serious bleeding TEAE: Central nervous system bleeding [2, 3]: 0.3%
- Serious bleeding TEAE: Gastrointestinal bleeding [2, 3]: 1.5%
- Patients with Bleeding-Related Disorders, % [2, 4]: (2.7%)
- Patients with Bleeding-Related Disorders, number [2, 4]: 111
